Measurements taken from US8263656B2 (Hoffmann-La Roche Inc., priority 2008, dated 2012).

How the values were obtained:
human CRTH2 = molecular target: T1, human CRTH2 (Homo sapiens, UniProt Q9Y5Y4); experiment: Human CRTH2 Receptor Binding Assay (whole cell, [3H]ramatroban competition); conditions: CHO-K1 cells expressing human CRTH2 and G-alpha16; 20 nM [3H]ramatroban; 1 hour, room temperature
T1 construct: expressed in transfected cells
T1 sequence (Q9Y5Y4 1-395): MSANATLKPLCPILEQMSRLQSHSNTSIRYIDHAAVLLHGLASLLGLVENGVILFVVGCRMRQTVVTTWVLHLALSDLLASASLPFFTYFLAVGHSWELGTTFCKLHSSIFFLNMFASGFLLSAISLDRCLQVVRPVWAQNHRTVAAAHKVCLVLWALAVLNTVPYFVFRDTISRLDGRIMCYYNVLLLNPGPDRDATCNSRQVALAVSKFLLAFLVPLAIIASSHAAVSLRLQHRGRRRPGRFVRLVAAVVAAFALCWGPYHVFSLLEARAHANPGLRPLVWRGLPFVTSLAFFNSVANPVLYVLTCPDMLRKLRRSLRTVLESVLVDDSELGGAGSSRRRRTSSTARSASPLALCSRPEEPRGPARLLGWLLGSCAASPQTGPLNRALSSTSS
Method in brief: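 CHO-K1 cells stably expressing human CRTH2 and G-alpha16 (1.5×10^5 cells) incubated 1 h at room temperature with 20 nM [3H]ramatroban in PBS, 10 mM MgCl2, 0.06% BSA, then filtered and counted. Non-specific binding defined with 10 μM 15(R)-15-methyl PGD2; IC50 from 7-concentration 4-parameter logistic fit of specific-binding inhibition.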

[1] = test system: DK-PGD2-induced IL-13 production in T helper type 2 (Th2) cells; experiment: DK-PGD2-Induced IL-13 Production Assay in Th2 Cells; format: cell-based; conditions: human Th2 cells, 500 nM DK-PGD2, 4 hrs at 37° C., ELISA; unit inferred; read-out: IC50 of inhibiting IL-13 production (values greater than 10)
Procedure: Inhibition of 13,14-dihydro-15-keto Prostaglandin D2 (DK-PGD2)-induced IL-13 production in T helper type 2 (Th2) cells was applied to evaluate compound cellular potency.
Cultures of Th2 cells were established from blood of healthy human volunteers according to the following procedure. Peripheral blood mononuclear cells (PBMC) were first isolated from 50 mL of fresh blood by Ficoll-Hypaque density gradient centrifugation, followed by CD4^+ cell purification using a CD4^+ T Cell Isolation Kit II (from Miltenyi Biotec Inc.). The CD4^+ T cells were then differentiated to Th2 cells by culturing the cells in X-VIVO 15® medium (from Cambrex BioScience Walkersville Inc.) containing 10% human AB serum (serum of blood type AB from Invitrogen Corporation), 50 U/mL of recombinant human interleukin-2 (rhIL-2) (from PeproTech Inc.) and 100 ng/mL of recombinant human interleukin-4 (rhIL-4) (from PeproTech Inc.) for 7 days. The Th2 cells were isolated using a CD294 (CRTH2) MicroBead Kit (from Miltenyi Biotec Inc.) and amplified in X-VIVO 15® medium containing 10% human AB serum and 50 U/mL of rhIL-2 for 2 to 5 weeks. In general, 70% to 80% of the Th2 cells used in the assay are CRTH2-positive when analyzed by fluorescence-activated cell sorting using the BM16 antibody (as previously described) conjugated to phycoerythrin (PE).
The spontaneous production of IL-13 by Th2 cells was determined in the absence of DK-PGD2 stimulation and the value was subtracted from that in the presence of each compound for percent inhibition and IC50 calculations.
The percent inhibition of interleukin 13 (IL-13) production for a compound at various concentrations was calculated according to the following formula, [1-(IL-13 production in the presence of compound)/(IL-13 production in the presence of 0.15% DMSO)]×100. The IC50 value, defined as the concentration of a compound that is required for 50% inhibition of IL-13 production, was calculated by fitting the percent inhibition data for 7 concentrations to a sigmoidal dose-response (4 parameter logistic) model in the XLfit® software Excel add-in program [ID Business Solutions Ltd., model 205, where F(x)=(A+(B−A)/(1+((C/x)^D)))].

IC50 (human CRTH2): 981 nM | IC50 [1]: > 10 µM
SMILES: CN(C1CCCc2c(OCC(=O)O)cc(F)cc21)S(=O)(=O)c1ccc(Cl)cc1Cl (centres unmarked) [Example 2-16]
